The test system of experiment [1] is T1, STAT5B-NTD.
T1 construct: His-SUMO (N, cleaved yes); made in house; host or cells: E. coli BL21 RILP
Description: Intact MS photoaffinity labeling screen, STAT5B-NTD (365 nm, UHPLC-MS).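 On MS labeling percentage, STAT5B: 0.17 µL of 100 mM DMSO fragment stock added to the protein sample.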 It is filed as binding. To be noted: for MS labeling percentage, STAT5B: STAT5B-NTD, 365 nm 10 min, no photocatalyst. The procedure, abridged: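 UV irradiation at 365 nm for 10 min at 4 °C. Labeling read by intact-protein UHPLC-MS, positive ion mode, m/z 100–2000.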

The test system of a further experiment is T2, BRD4-BD1.
T2 construct: screened the PhP library against the first bromodomain of BRD4 (BRD4-BD1); purchased GSK/GenScript
The experiment is described as follows: Intact MS photoaffinity labeling screen, BRD4-BD1 (302 nm, LCMS-TOF). It is filed as binding. To be noted: for MS labeling percentage, BRD4: BRD4-BD1, 302 nm 10 min. The procedure, abridged:
(§1)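 Labeling detected as mass additions in deconvoluted intact-protein LCMS-TOF spectra. Protein at 1 μM in PBS was first mixed with one fragment per well on ice for 15 min, followed by 10 min UV exposure at 302 nm.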

Experiment [2] relates to T3, Kras G12D protein / SOS1 exchange domain.
T3 construct: Cytoskeleton, Inc. (SOS1 exchange domain only) GE02
The experiment is described as follows: Kras-SOS exchange assay (MANT-GDP). In kind it is biochemical. The protocol: MANT-GDP loading assay: Kras^G12D protein was first buffer exchanged into low magnesium buffer (20 mM HEPES-NaOH (pH 7.5), 50 mM NaCl, 0.5 mM MgCl2) using a NAP5 column (catalog no.: 17-0583-1, Cytiva). The proteins were then incubated with 20-fold molar excess of N-methylanthraniloyl (MANT)-GDP (catalog no.: 69244, Sigma-Aldrich) in loading buffer (50 mM NaCl, 20 mM HEPES-NaOH [pH 7.5], 0.5 mM MgCl2, 10 mM EDTA, and 1 mM Dithiothreitol (DTT)) in a total volume of 200 μL at 20 °C for 90 min. The reaction was stopped by adding MgCl2 to a final concentration of 10 mM, then incubated at 20 °C for 30 min. The unbound MANT-GDP was removed using the NAP-5 column equilibrated with nucleotide exchange buffer (40 mM HEPES-NaOH (pH 7.5), 50 mM NaCl, 10 mM MgCl2, 2 mM DTT).
MANT-GDP exchange assay: First the MANT-GDP bound Kras G12D protein (in a final 1 μM molar concentration) was preincubated with the inhibitor molecules for 60 min. After the preincubation the samples were exposed to UV light for 10 min with a wavelength of 366 nm. The UV-treated MANT-GDP Kras-inhibitor mix was loaded into a black 384 well microplate. The nucleotide exchange reaction was initiated by adding 100 fold molar excess of GppNHp (catalog no.: G0635, Sigma-Aldrich), a non-hydrolyzable GTP analog and the SOS1 exchange domain (catalog no.: GE02, Cytoskeleton, Inc.) protein in 0.5 μM final concentration. The change in fluorescence intensity was measured every 30 s in room temperature for 60 min on an EnSpire plate reader (PerkinElmer, Inc.). The measured fluorescence values were fitted to a single exponential function by using GraphPad Prism 8 software.

The test system of experiment [3] is carbonic anhydrase II (CA). Description: Intact protein MS photoaffinity labeling screen, carbonic anhydrase. In kind it is binding. To be noted: intact protein MS after 10 min irradiation. The procedure, abridged: (§2)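 Fragments tested one per well, each incubated 15 min with protein to form non-covalent complexes before photo-crosslinking. Labeling read directly by intact protein MS as mass additions matching fragment adducts, expressed as labeling %.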

For the next experiment, the system named is myoglobin (Myo). The experiment is described as follows: Intact protein MS photoaffinity labeling screen, myoglobin. In kind it is binding. To be noted: intact protein MS after 10 min irradiation. The procedure, abridged:
as §2

The test system of the next experiment is T4, KRas^G12D.
T4 construct: purchased GSK/GenScript
Description: Intact MS photoaffinity labeling screen, KRas G12D (302 nm, LCMS-TOF). In kind it is binding. To be noted: for MS labeling percentage, KRas: KRas G12D, 302 nm 10 min. The procedure, abridged: as §1

For experiment [4], the system named is CA, Lyo, Myo, BRD4-BD1, KRas G12D, STAT5B-NTD. Description: Intact MS labeling compared over all protein targets. It is filed as binding. The protocol:
Using a plate-based format with one fragment per well, each fragment was incubated with the target proteins for 15 min to allow for the formation of non-covalent interactions. The plate was then irradiated at 302 or 365 nm for 10 min to enable the bound fragments to crosslink to the protein[26]. Finally, the results were directly analyzed from the plate using intact protein mass spectrometry by observing the mass additions that correspond to successful labeling (Fig. 2c, for labeling % values see Supplementary data). The library was first characterized against three benchmark proteins like carbonic anhydrase (CA), lysozyme (Lyo), and myoglobin (Myo).
The PhP library was screened against BRD4-BD1 and KRas^G12D as follows. Using a Labcyte Echo® 555 Liquid Handler, 150 nL of fragment solution (20 mM) was transferred into a Greiner 384 low-volume plate (white) to prepare the probe plate. The probe plate was placed on ice. 15 μL of protein stock solution (1 μM BRD4-BD1 (GSK/GenScript) or KRas^G12D (GSK/GenScript) in PBS buffer) was dispensed into wells containing fragments. The plate was left on ice for 15 min for incubation, then irradiated at 302 nm for 10 min, and centrifuged (1000 rpm, 1 min) to remove any bubbles. The plate was then analyzed by LCMS-TOF mass spectrometry (Agilent 1200 series liquid chromatography with Agilent Bio-HPLC PLRP-S (1000 Å, 5 µm × 50 mm × 1.0 mm, PL1312-1502) reverse phase HPLC column at 70 °C equipped with an Agilent G6224 time-of-flight (ToF), see Supplementary Note 2 for the full protocols). The deconvoluted spectra were analyzed using R Studio software.
During the analysis, the column temperature was maintained at a constant 60 °C, and a sample volume of 3 µL was injected for each analysis. Data acquisition was conducted in positive ion mode within the m/z 100–2000 (mass-to-charge ratio) range. For the full protocol and spectra of the hits, see Supplementary Note 2.

Another experiment relates to lysozyme (Lyo). The experiment is described as follows: Intact protein MS photoaffinity labeling screen, lysozyme. It is filed as binding. To be noted: intact protein MS after 10 min irradiation. The procedure, abridged: as §2
Experiment [5] deals with T1, STAT5B-NTD. Description: Intact MS labeling screen, STAT5B-NTD conjugated with photocatalyst Ir-G2-PEG3-COOH (450 nm).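 Further: 0.14 µL of 100 mM DMSO fragment stock added to the conjugate.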 The settings on record: 450 nm 10 min. In kind it is binding. The procedure, abridged: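 Ir-G2-PEG3-COOH photocatalyst (10 eq) activated 30 min with EDC/NHS/BOP, then conjugated to STAT5B-NTD (7 µM) overnight at RT or 1 h at 37 °C in dark. PhP added, 1 h dark, then 450 nm irradiation 10 min at 4 °C; labeling read by intact LC-MS, positive ion mode, m/z 100–2000.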

Setting [6] is: sheet PhP, experimental hit status flag given as 0 or 1.
Setting [7] is: hit status flag, 1 = hit, 0 = no hit.

In the case of `CC1(CCC(=O)Nc2ccc(-c3ncccc3O)cc2)N=N1` [PhP060, N1=NC1(C)CCC(=O)Nc2ccc(cc2)-c3ncccc3O], in the experiment with STAT5B-NTD [1], the “MS labeling percentage, STAT5B” value came to 0%. Further, the “STAT5B-NTD (experimental hit status)” value in the experiment with STAT5B-NTD [1] (setting [6]) worked out at 0. Moreover, the “BRD4-BD1 (experimental hit status)” value in the experiment on BRD4-BD1 (setting [6]) turned out to be 0. Also, the “Effect on SOS1-mediated nucleotide exchange of KRas” value is “no effect” in [2] (prior to irradiation) and “no effect” in experiment [2] (upon irradiation (366 nm, 10 min)). Besides, the “MS labeling percentage, CA” value in [3] is 17.3%. Further, the “MS labeling percentage, Myo” value with myoglobin (Myo) is given as 24.9%. The “MS labeling percentage, KRas” value in the experiment on KRas^G12D came to 13.7%. In addition, in the experiment with KRas^G12D (setting [6]), the “KRAS-G12D (experimental hit status)” value was found to be 1. Moreover, in experiment [4] (of the six protein targets), the “Number of proteins labeled” value is “four”. The “MS labeling percentage, Lyo” value with lysozyme (Lyo) stood at 16.1%. In the experiment with STAT5B-NTD [5], the “MS labeling percentage, STAT5B+photocat” value amounted to 8.8%.
As to `COc1ccc(-c2cnc(CNC(=O)CCC3(C)N=N3)[nH]2)cc1` [PhP098, COc1ccc(cc1)-c2cnc([nH]2)CNC(=O)CCC3(C)N=N3], the “MS labeling percentage, STAT5B” value in the experiment on STAT5B-NTD [1] is 1.4%. Besides, the “STAT5B-NTD (experimental hit status)” value with STAT5B-NTD [1] (setting [7]) amounted to 0. In the experiment on BRD4-BD1, the “MS labeling percentage, BRD4” value came out at 4.3%. For the same compound, the “BRD4-BD1 (experimental hit status)” value in the experiment on BRD4-BD1 (setting [7]) was 0. Besides, the “MS labeling percentage, CA” value in experiment [3] was found to be 1.6%. Further, the “MS labeling percentage, Myo” value with myoglobin (Myo) was determined as 2.3%. In addition, the “MS labeling percentage, KRas” value in the experiment with KRas^G12D is reported as 9.6%. In addition, the “KRAS-G12D (experimental hit status)” value in the experiment on KRas^G12D (setting [7]) worked out at 0. For the same compound, in experiment [4], the “Labeling efficiency over all protein targets (mean ± spread)” value is 3.3 ± 3.1%. For the same compound, in the experiment on lysozyme (Lyo), the “MS labeling percentage, Lyo” value was found to be 0.5%. For the same compound, in the experiment on STAT5B-NTD [5], the “MS labeling percentage, STAT5B+photocat” value stood at 3.1%.
Turning to `CC1(CCC(=O)NCc2ccc(CNC(=O)OC(C)(C)C)cc2)N=N1` [PhP099, CC(C)(C)OC(=O)NCc1ccc(cc1)CNC(=O)CCC2(C)N=N2], in the experiment with STAT5B-NTD [1], the “MS labeling percentage, STAT5B” value worked out at 2.9%. Besides, the “STAT5B-NTD (experimental hit status)” value in the experiment with STAT5B-NTD [1] (setting [7]) worked out at 0. The “MS labeling percentage, BRD4” value in the experiment with BRD4-BD1 is reported as 1.1%. Further, the “BRD4-BD1 (experimental hit status)” value in the experiment on BRD4-BD1 (setting [7]) is reported as 0. In addition, in [3], the “MS labeling percentage, CA” value is 12.8%. In the experiment on myoglobin (Myo), the “MS labeling percentage, Myo” value was 4.3%. For the same compound, the “MS labeling percentage, KRas” value with KRas^G12D is reported as 7.7%. The “KRAS-G12D (experimental hit status)” value in the experiment with KRas^G12D (setting [7]) is 0. Further, the “Labeling efficiency over all protein targets (mean ± spread)” value in [4] worked out at 5.2 ± 4%. The “MS labeling percentage, Lyo” value in the experiment with lysozyme (Lyo) was found to be 2.2%. Also, in the experiment on STAT5B-NTD [5], the “MS labeling percentage, STAT5B+photocat” value was found to be 19.3%.

The values are drawn from publication PMC11292009, “Mapping protein binding sites by photoreactive fragment pharmacophores” (Communications Chemistry, 2024).
